IC50 data for 45 molecules are collected here from patent US7893074B2, “2, 4-pyrimidinediamines useful in the treatment of neoplastic diseases, inflammatory and immune system disorders” (Novartis AG, priority 2003, dated 2011).

Bounds are passed on as bounds.

In experiment [1] the target is Focal Adhesion Kinase (FAK) (Homo sapiens, UniProt Q05397). In words: FAK assay system (Focal Adhesion Kinase inhibition). It is filed as biochemical. The note with it: read-out: FAK IC50.
Experiment [2] relates to Mouse mammary carcinoma 4T1 cells. Kind of experiment: Anchorage-independent tumor cell growth assay. The format is cell-based. As to conditions: Mus musculus, 4T1. As for the experimental part:
Cells are cultured for 2 h and inhibitors are added at various concentrations in a final concentration of 0.1% DMSO. After 48 h, cell growth is assayed with the cell counting kit-8 (Wako Pure Chemical), which uses a water soluble tetrazolium salt WST8. Twenty μL of the reagent is added into each well and cells are further cultured for 2 h. The optical density is measured at 450 nm.

The next experiment addresses FAK (Mus musculus, UniProt P34152). In words: Phos IC50 (phosphorylation). The format is cell-based.

Focal Adhesion Kinase (FAK), sequence (Q05397 384-706): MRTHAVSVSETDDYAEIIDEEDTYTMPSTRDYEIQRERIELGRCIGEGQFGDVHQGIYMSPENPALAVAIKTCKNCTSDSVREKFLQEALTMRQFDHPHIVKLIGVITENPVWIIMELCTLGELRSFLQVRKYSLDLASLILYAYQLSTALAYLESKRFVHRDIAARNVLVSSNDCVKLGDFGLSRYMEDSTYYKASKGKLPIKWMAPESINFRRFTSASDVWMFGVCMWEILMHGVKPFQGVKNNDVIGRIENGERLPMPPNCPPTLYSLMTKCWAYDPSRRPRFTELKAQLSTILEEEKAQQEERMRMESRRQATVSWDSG
FAK, sequence (P34152 2-1052): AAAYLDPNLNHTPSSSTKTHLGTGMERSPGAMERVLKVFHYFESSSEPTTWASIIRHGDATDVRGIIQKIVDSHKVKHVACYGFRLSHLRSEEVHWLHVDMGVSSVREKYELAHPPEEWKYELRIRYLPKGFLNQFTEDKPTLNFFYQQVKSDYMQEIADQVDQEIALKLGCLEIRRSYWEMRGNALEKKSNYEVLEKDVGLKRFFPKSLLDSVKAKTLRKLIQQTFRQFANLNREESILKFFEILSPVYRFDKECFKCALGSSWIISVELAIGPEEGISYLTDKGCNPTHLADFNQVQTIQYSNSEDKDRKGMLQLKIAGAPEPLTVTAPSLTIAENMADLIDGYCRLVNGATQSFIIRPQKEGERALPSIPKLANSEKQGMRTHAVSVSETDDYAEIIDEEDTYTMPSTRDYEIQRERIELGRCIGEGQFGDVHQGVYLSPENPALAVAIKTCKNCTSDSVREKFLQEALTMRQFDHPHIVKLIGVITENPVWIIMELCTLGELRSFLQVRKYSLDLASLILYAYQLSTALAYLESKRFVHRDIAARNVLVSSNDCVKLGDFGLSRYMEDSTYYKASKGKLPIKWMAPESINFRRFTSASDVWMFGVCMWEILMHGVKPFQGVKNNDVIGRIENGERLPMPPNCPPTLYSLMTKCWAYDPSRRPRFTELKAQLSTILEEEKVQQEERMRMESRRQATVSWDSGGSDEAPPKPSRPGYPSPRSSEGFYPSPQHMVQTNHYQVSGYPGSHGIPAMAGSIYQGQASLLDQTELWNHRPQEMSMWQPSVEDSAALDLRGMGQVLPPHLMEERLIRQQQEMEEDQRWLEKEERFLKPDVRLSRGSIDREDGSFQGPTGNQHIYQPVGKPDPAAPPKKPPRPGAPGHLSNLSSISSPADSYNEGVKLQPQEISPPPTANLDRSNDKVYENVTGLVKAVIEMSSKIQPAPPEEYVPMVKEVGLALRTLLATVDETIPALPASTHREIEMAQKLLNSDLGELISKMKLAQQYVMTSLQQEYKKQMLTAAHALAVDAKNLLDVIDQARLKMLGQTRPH

Consider `CNS(=O)(=O)c1ccccc1Nc1nc(Nc2cc(OC)ccc2OC)ncc1[N+](=O)[O-]` [Example 1, 2-[2-(2,5-Dimethoxy-phenylamino)-5-nitro-pyrimidin-4-ylamino]-N-methyl-benzenesulfonamide], for which the IC50 is 140 nM in experiment [1], > 10000 nM in experiment [2] and 700 nM on FAK.
Taken in the same sequence, the figures for `CNS(=O)(=O)c1ccccc1Nc1nc(Nc2cccc3c2OC(F)(F)O3)ncc1Br` [Example 3-1] were 44 nM, > 10000 nM and 340 nM.
Taken in the same sequence, the figures for `CNS(=O)(=O)c1ccccc1Nc1nc(Nc2cc(OC)ccc2C)ncc1Br` [Example 3-3] were 9.1 nM, 800 nM and 140 nM.
Taken in the same sequence, the figures for `CNS(=O)(=O)c1ccccc1Nc1nc(Nc2ccc(C)cc2F)ncc1Br` [Example 3-4] were 32 nM, 2000 nM and 530 nM.
Turning to `CNS(=O)(=O)c1ccccc1Nc1nc(Nc2ccccc2OC)ncc1Br` [Example 3-6], the values for the IC50 (in experiment [1]; in experiment [2]; against FAK) were 13 nM, 2000 nM and 110 nM, respectively.
Turning to `CNS(=O)(=O)c1ccccc1Nc1nc(Nc2ccccc2C)ncc1Br` [Example 3-7], the half-maximal inhibitory concentration (IC50) worked out at 16 nM in experiment [1], 2000 nM in experiment [2] and 450 nM at FAK.
For `CNc1ccccc1Nc1ncc(Br)c(Nc2ccccc2S(=O)(=O)NC)n1` [Example 3-8], in that order: 74 nM, 6000 nM and 300 nM.
Taken in the same sequence, the figures for `CNS(=O)(=O)c1ccccc1Nc1nc(Nc2cc(-c3ccccc3)ccc2OC)ncc1Br` [Example 3-9] were 48 nM, 700 nM and 500 nM.
Taken in the same sequence, the figures for `CCCCc1ccccc1Nc1ncc(Br)c(Nc2ccccc2S(=O)(=O)NC)n1` [Example 3-10] were 52 nM, > 10000 nM and 950 nM.
On to `CNS(=O)(=O)c1ccccc1Nc1nc(Nc2cccc(OC)c2OC)ncc1Br` [Example 3-14], for which the IC50 in experiment [1] came out at 54 nM; in experiment [2], 5000 nM; at FAK, 400 nM.
For `CNS(=O)(=O)c1ccccc1Nc1nc(Nc2cc(C)cc(C)c2C)ncc1Br` [Example 3-16], in that order: 48 nM, 3000 nM and 1100 nM.
Taken in the same sequence, the figures for `CNS(=O)(=O)c1ccccc1Nc1nc(Nc2cc(C(C)C)ccc2C)ncc1Br` [Example 3-18] were 130 nM, 9000 nM and 1500 nM.
Taken in the same sequence, the figures for `CNS(=O)(=O)c1ccccc1Nc1nc(Nc2cc(N3CCOCC3)ccc2C)ncc1Br` [Example 3-20] were 16 nM, 300 nM and 220 nM.
On to `CNS(=O)(=O)c1ccccc1Nc1nc(Nc2cc(C(=O)N3CCOCC3)ccc2C)ncc1Br` [Example 3-22], for which the results for the IC50 (in experiment [1]; in experiment [2]; against FAK) were 120 nM, 2000 nM and 900 nM, respectively.
Taken in the same sequence, the figures for `CNS(=O)(=O)c1ccccc1Nc1nc(Nc2cc(C(=O)NC3CCCCC3)ccc2C)ncc1Br` [Example 3-23] were 38 nM, 500 nM and 390 nM.
Taken in the same sequence, the figures for `CNS(=O)(=O)c1ccccc1Nc1nc(Nc2cc(C(=O)N3CCNCC3)ccc2C)ncc1Br` [Example 3-24] were 64 nM, 5000 nM and 3500 nM.
Taken in the same sequence, the figures for `CNS(=O)(=O)c1ccccc1Nc1nc(Nc2cc(N3CCCCC3)ccc2C)ncc1Br` [Example 3-26] were 50 nM, 2000 nM and 790 nM.
As for `CNS(=O)(=O)c1ccccc1Nc1nc(Nc2cc(-c3cccc(OC)c3)ccc2C)ncc1Br` [Example 3-28], the IC50 turned out to be 43 nM in experiment [1], 700 nM in experiment [2] and 710 nM against FAK.
Turning to `CCOc1ccc(-c2ccccc2)cc1Nc1ncc(Br)c(Nc2ccccc2S(=O)(=O)NC)n1` [Example 3-29], the figures for the IC50 (in experiment [1]; in experiment [2]; at FAK) were 89 nM, > 10000 nM and 600 nM, respectively.
Taken in the same sequence, the figures for `CCOc1ccc(-c2ccc(OC)cc2)cc1Nc1ncc(Br)c(Nc2ccccc2S(=O)(=O)NC)n1` [Example 3-30] were 69 nM, 3000 nM and 600 nM.
Taken in the same sequence, the figures for `CNS(=O)(=O)c1ccccc1Nc1nc(Nc2cccc3c2CCCC3)ncc1Br` [Example 3-31] were 13 nM, 5000 nM and 1100 nM.
As for `CNS(=O)(=O)c1ccccc1Nc1nc(Nc2ccc(F)cc2Cl)ncc1Br` [Example 3-37], the IC50 in experiment [1] worked out at 39 nM; in experiment [2], 2600 nM; against FAK it was 1100 nM.
Taken in the same sequence, the figures for `CNS(=O)(=O)c1ccccc1Nc1nc(Nc2cc(F)ccc2Cl)ncc1Br` [Example 3-38] were 64 nM, 3800 nM and 1700 nM.
Taken in the same sequence, the figures for `CNS(=O)(=O)c1ccccc1Nc1nc(Nc2ccc(N3CCC(C#N)CC3)cc2OC)ncc1Br` [Example 3-40] were 9 nM, 900 nM and > 10000 nM.
Taken in the same sequence, the figures for `CNS(=O)(=O)c1ccccc1Nc1nc(Nc2ccc(N3CCSCC3)cc2OC)ncc1Br` [Example 3-41] were 22 nM, 430 nM and > 10000 nM.
On to `CNS(=O)(=O)c1ccccc1Nc1nc(Nc2ccc(N(CCOC)CCOC)cc2OC)ncc1Br` [Example 3-42], for which the values for the 50% inhibitory concentration (IC50) (in experiment [1]; in experiment [2]; on FAK) were 29 nM, 300 nM and 350 nM, respectively.
For `CNS(=O)(=O)c1ccccc1Nc1nc(Nc2cccc3c2ccn3CCCN2CCOCC2)ncc1Br` [Example 3-45], in that order: 0.9 nM, 20 nM and 20 nM.
For `CNS(=O)(=O)c1ccccc1Nc1nc(Nc2ccc(N3CCNCC3)cc2OC)ncc1Br` [Example 3-47], the IC50 in experiment [1] stood at 1 nM; in experiment [2], 60 nM; against FAK it was 100 nM.
For `CNS(=O)(=O)c1ccccc1Nc1nc(Nc2cc(Cl)ccc2OC)ncc1Br` [Example 3-52], in that order: 29 nM, 2000 nM and 420 nM.
Taken in the same sequence, the figures for `CCOc1ccc(OCC)c(Nc2ncc(Br)c(Nc3ccccc3S(=O)(=O)NC)n2)c1` [Example 3-55] were 34 nM, 3000 nM and > 10000 nM.
Taken in the same sequence, the figures for `CCOc1ccc(N2CCOCC2)cc1Nc1ncc(Br)c(Nc2ccccc2S(=O)(=O)NC)n1` [Example 3-57] were 28 nM, 3000 nM and 610 nM.
With `CNS(=O)(=O)c1ccccc1Nc1nc(Nc2cc(OC)ccc2OCCOC)ncc1Br` [Example 3-59], the IC50 is 95 nM in experiment [1], > 10000 nM in experiment [2] and 1200 nM at FAK.
For `CNS(=O)(=O)c1ccccc1Nc1nc(Nc2cc(OC)ccc2OCCO)ncc1Br` [Example 3-60], in that order: 90 nM, 2000 nM and 930 nM.
For `CNS(=O)(=O)c1ccccc1Nc1nc(Nc2cc(OC)ccc2OC(C)C)ncc1Br` [Example 3-62], in that order: 63 nM, > 10000 nM and > 10000 nM.
For `CCCOc1ccc(OC)cc1Nc1ncc(Br)c(Nc2ccccc2S(=O)(=O)NC)n1` [Example 3-63], in that order: 27 nM, > 10000 nM and > 10000 nM.
Take `CNS(=O)(=O)c1ccccc1Nc1nc(Nc2cc(-c3ccccn3)ccc2OC)ncc1Br` [Example 3-67]: the IC50 stood at 6 nM in experiment [1], 390 nM in experiment [2] and 380 nM at FAK.
Take `CNS(=O)(=O)c1ccccc1Nc1nc(Nc2ccc(OCCCN3CCOCC3)cc2OC)ncc1Br` [Example 3-70]: the IC50 stood at 3.5 nM in experiment [1], 130 nM in experiment [2] and 20 nM against FAK.
With `CNS(=O)(=O)c1ccccc1Nc1nc(Nc2ccc(OCCCN3CCOCC3)cc2C)ncc1Br` [Example 3-71], the IC50 in experiment [1] worked out at 11 nM; in experiment [2] it was 80 nM; at FAK, 50 nM.
Turning to `CNS(=O)(=O)c1ccccc1Nc1nc(Nc2ccc(OCCCN3CCN(C)CC3)cc2OC)ncc1Br` [Example 3-72], the 50% inhibitory concentration (IC50) in experiment [1] was 2.1 nM; in experiment [2], 60 nM; against FAK, 110 nM.
For `CNS(=O)(=O)c1ccccc1Nc1nc(Nc2ccc(OC3CCN(C(C)=O)CC3)cc2OC)ncc1Br` [Example 3-74], in that order: 15 nM, 150 nM and 100 nM.
Taken in the same sequence, the figures for `CNS(=O)(=O)c1ccccc1Nc1nc(Nc2cc(OC3CCN(C(C)=O)CC3)ccc2OC)ncc1Br` [Example 3-75] were 72 nM, 1300 nM and 500 nM.
For `CNS(=O)(=O)c1ccccc1Nc1nc(Nc2cc(F)ccc2F)ncc1Br` [Example 3-77], in that order: 65 nM, 3000 nM and > 10000 nM.
On to `CNS(=O)(=O)c1ccccc1Nc1nc(Nc2cc(OC3CCNCC3)ccc2OC)ncc1Br` [Example 3-78], for which the IC50 was 10 nM in experiment [1], 220 nM in experiment [2] and > 10000 nM at FAK.
For `CNS(=O)(=O)c1ccccc1Nc1nc(Nc2ccc(OC3CCNCC3)cc2OC)ncc1Br` [Example 3-79], in that order: 5 nM, 120 nM and 1300 nM.
For `CNS(=O)(=O)c1ccccc1Nc1nc(Nc2cc(N3CCN(C)CC3)ccc2OC)ncc1Br` [Example 3-84], in that order: 10 nM, 80 nM and 1000 nM.

As usually defined, the IC50 is the concentration at which inhibition is half-maximal.
